Experimental data taken from US20110172163A1, “Novel Protease Inhibitors” (QUEENSLAND UNIVERSITY OF TECHNOLOGY, priority 2008, published 2011).
“Also recorded” adds a separate entry of the source. Where two headings read alike, the source gives them in different places. Bridge positions count the residues as written; N and C are the ends. Peptide text beside a SMILES is read from it.

Columns and labels:
KLK14 = KLK14 (Homo sapiens, UniProt Q9P0G3); experiment: Protein proteolysis: fibrinogen digestion by KLK14; type: biochemical; details: up to a concentration of 2 μM
bovine plasminogen = target: T1, bovine plasminogen (Bos taurus, UniProt P06868); experiment: Inhibitor kinetics: plasminogen amidolytic activity; type: biochemical; details: substrate L-pNA, BAPNA (0.2 mM)
T1 construct: purchased Sigma Chemicals; host or cells: bovine plasma
Experimental: (§1) All enzymes and substrates were obtained from Sigma Chemicals if not otherwise specified. […] The release of pNa moiety was monitored as described above for 7 minutes with each point being the average of three independent triplicate reactions. IC50 was determined using the Prism 5 software suite (GraphPad software Inc.).

bovine α-chymotrypsin = target: T2, bovine α-chymotrypsin (Bos taurus, UniProt P00766); experiment: Inhibitor kinetics: α-chymotrypsin amidolytic activity; type: biochemical; details: substrate W-pNA (0.2 mM)
T2 construct: purchased Sigma Chemicals
Experimental: as §1

KLK2 = KLK2 (Homo sapiens, UniProt P20151); experiment: Protein proteolysis: fibrinogen digestion by KLK2; type: biochemical; details: up to a concentration of 2 μM
trypsin = target: T3, trypsin (Bos taurus, UniProt P00760); experiment: Protein proteolysis: fibrinogen digestion by trypsin (SDS-PAGE); type: biochemical, bovine; details: up to a concentration of 2 μM
T3 construct: purchased Sigma Chemicals
Experimental: (§2) Fibrinogen was solubilised in assay buffer to a final concentration of 1 mg/ml and digested with KLK4 (+/−inhibitor) over a period of 90 minutes at 37° C. Typically assays consisted of 5 μM protein substrate and 2.5 nM KLK4 protein or 1 nM trypsin made up to a final volume of 8 μl with assay buffer. Proteolysis was initiated by addition of KLK4 and terminated by addition of SDS PAGE sample buffer and heat denaturation at 100° C. for 5 minutes. Hydrolysis products were resolved on 10% SDS PAGE gels and compared with incubations terminated immediately after initiation (time 0), and substrate proteins incubated in assay buffer for 90 minutes in the absence of KLK4 or 4-16 mins with trypsin.

bovine β-trypsin = target: T4, bovine β-trypsin (Bos taurus, UniProt P00760); experiment: Inhibitor kinetics: trypsin amidolytic activity; type: biochemical; details: trypsin; read-out: IC50
T4 construct: bovine β-trypsin (20 ng); purchased Sigma Chemicals
T4 sequence (P00760 24-246): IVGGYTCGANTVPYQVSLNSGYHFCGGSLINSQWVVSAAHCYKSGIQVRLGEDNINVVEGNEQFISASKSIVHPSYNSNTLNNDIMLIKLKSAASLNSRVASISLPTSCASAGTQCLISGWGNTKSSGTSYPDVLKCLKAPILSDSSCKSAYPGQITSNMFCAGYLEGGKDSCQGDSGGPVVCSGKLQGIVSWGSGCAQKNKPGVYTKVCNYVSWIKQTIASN
Experimental: as §1

bovine thrombin = target: T5, bovine thrombin (Bos taurus, UniProt P00735); experiment: Inhibitor kinetics: thrombin amidolytic activity; type: biochemical; details: substrate Bz-FVR-pNA (0.2 mM)
T5 construct: purchased Sigma Chemicals
Experimental: as §1

KLK5 = KLK5 (Homo sapiens, UniProt Q9Y337); experiment: Protein proteolysis: fibrinogen digestion by KLK5; type: biochemical; details: up to a concentration of 2 μM
iKLK14 = target: T6, iKLK14 (Homo sapiens, UniProt Q9P0G3); experiment: Inhibitor kinetics: KLK14 amidolytic activity; type: biochemical
T6 construct: made in house

KLK4 = KLK4 (Homo sapiens, UniProt Q9Y5K2); experiment: Protein proteolysis: fibrinogen digestion by KLK4 (SDS-PAGE); type: biochemical; parameters: pro-region of PSA (KLK3), replacing the native KLK4 pro-region (only if the E. coli preparation was used) (N, cleaved yes); made in house; details: 2.5 nM KLK4, SDS-PAGE
Experimental: as §2

[1] = tested on: LNCaP prostate cancer cells; experiment: Primary tumour growth of LNCaP cells in nude mice (luciferase imaging); type: in vivo; details: 3×i.v. doses of 0.2 mg/kg, when tumour specific growth rate was less than 2%/day
Experimental: Nude mice were injected with 1.5×10^6 LNCaP prostate cancer cells stably expressing an exogenous luciferase reporter gene and imaged over a period of 56 days. Tumour growth was measured by injecting mice with […] (a luminescent substrate for luciferase) and the resulting light emissions were quantified using a xenogen in vivo imaging system.

KLK12 = KLK12 (Homo sapiens, UniProt Q9UKR0); experiment: Protein proteolysis: fibrinogen digestion by KLK12; type: biochemical; details: up to a concentration of 2 μM
bovine β trypsin = experiment: Trypsin stimulated calcium release in LMF stably expressing human PAR-2; type: cell-based; details: 1 μM SFTI-FCQR, trypsin 10 nM
Experimental: (§3) Lung murine fibroblasts (LMF) from Par-1 null mice stably expressing human PAR-2 were grown to 80% confluence as previously described, washed with PBS, detached nonenzymatically, resuspended (4×10^6 cells/ml) in extracellular medium (121 mM NaCl, 5.4 mM KCl, 0.8 mM MgCl2, 1.8 mM CaCl2, 5.5 mM glucose, 25 mM HEPES (pH 7.4)) containing 0.2% (w/v) bovine serum albumin (Sigma) and then loaded with the fluorescence indicator Fura-2 acetoxymethyl ester (1.0 μM; Invitrogen) at room temperature for 60 min. Cells were then pelleted followed by resuspension in extracellular medium (without bovine serum albumin) at a concentration of 2×10^6 cells/ml for fluorescence measurements. The ratio of fluorescence at 510 nm after excitation at 340 and 380 nm was monitored (Polarstar Optima fluorescent plate reader) during treatment with bovine β trypsin (Sigma Chemicals), PAR-2 activating peptide SLIGKV (AusPep) and iKLK4 with or without SFTI-FCQR.

iKLK4 = experiment: KLK4 stimulated calcium release in LMF stably expressing human PAR-2; type: cell-based
Experimental: as §3

T1 sequence (P06868 27-812 limits assumed): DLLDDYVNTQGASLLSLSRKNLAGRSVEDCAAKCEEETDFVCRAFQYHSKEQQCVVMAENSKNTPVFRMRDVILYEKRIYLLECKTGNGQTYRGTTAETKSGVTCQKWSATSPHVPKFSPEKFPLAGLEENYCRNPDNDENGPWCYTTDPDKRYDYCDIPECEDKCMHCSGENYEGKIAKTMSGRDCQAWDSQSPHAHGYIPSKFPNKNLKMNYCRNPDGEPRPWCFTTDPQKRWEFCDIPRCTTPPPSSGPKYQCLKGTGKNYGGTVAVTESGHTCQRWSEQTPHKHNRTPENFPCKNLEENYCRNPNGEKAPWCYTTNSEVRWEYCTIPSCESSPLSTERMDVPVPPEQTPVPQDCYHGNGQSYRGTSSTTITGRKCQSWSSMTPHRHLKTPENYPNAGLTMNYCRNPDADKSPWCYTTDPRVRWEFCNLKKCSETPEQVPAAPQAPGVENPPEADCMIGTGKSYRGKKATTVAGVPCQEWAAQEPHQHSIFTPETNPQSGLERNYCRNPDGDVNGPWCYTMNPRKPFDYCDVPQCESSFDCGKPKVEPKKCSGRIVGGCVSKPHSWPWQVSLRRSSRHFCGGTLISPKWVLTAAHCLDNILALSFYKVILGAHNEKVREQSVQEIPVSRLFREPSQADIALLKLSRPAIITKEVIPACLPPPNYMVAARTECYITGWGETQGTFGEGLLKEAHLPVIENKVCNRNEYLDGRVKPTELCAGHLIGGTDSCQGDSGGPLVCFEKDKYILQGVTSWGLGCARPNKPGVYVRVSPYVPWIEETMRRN
Chain of KLK2 (P20151 25-261): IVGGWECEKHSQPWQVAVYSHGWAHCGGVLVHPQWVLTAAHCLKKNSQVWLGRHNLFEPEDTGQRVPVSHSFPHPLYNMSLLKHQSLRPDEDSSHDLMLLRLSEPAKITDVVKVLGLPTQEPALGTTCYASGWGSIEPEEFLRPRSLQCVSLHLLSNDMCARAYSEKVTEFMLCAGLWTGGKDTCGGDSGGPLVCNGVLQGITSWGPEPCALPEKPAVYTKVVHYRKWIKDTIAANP
Chain of KLK5 (Q9Y337 23-293): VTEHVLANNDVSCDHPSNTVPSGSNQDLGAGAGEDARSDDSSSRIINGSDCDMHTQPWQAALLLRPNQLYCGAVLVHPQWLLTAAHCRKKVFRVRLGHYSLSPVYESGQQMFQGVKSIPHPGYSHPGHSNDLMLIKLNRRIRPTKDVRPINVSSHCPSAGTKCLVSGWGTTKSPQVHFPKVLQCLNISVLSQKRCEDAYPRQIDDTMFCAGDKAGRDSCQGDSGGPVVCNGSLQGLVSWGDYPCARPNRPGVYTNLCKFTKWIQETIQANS
Chain of KLK14 (Q9P0G3 35-267 limits assumed): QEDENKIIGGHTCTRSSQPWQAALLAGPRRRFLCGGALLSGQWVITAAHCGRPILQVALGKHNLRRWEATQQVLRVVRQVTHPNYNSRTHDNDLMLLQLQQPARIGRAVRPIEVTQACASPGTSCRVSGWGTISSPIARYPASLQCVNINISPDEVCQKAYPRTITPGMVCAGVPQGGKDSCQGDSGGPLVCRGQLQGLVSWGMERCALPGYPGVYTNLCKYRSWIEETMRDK
Chain of KLK12 (Q9UKR0 18-248): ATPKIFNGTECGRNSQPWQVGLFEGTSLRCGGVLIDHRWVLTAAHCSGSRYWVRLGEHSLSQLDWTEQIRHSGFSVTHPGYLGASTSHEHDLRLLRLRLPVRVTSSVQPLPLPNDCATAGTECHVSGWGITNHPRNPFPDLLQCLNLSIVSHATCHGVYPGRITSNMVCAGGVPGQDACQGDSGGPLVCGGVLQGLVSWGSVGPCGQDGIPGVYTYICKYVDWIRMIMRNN
T3 sequence (P00760 18-246 limits assumed): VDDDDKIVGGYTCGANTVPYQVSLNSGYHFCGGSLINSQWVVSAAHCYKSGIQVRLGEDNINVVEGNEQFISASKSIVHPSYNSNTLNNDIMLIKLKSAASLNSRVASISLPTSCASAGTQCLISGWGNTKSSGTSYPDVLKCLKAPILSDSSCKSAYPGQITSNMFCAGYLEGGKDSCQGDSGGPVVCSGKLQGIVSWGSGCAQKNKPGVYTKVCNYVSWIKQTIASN
Chain of KLK4 (Q9Y5K2 31-254): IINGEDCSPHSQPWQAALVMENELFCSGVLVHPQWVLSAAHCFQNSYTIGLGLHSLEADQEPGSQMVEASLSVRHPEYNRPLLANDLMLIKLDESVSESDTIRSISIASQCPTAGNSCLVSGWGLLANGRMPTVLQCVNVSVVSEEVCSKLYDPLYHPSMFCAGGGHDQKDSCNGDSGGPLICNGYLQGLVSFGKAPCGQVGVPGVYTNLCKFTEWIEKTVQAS
T6 sequence (Q9P0G3 41-267): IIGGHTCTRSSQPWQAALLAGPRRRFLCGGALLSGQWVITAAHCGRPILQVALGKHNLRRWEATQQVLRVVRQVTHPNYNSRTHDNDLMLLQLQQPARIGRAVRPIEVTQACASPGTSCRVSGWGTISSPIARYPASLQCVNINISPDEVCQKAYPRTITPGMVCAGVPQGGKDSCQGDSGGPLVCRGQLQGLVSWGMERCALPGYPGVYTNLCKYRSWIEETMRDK

## CC[C@H](C)[C@@H]1NC(=O)[C@@H]2CCCN2C(=O)[C@@H]2CCCN2C(=O)[C@H]([C@@H](C)CC)NC(=O)[C@H](CO)NC(=O)[C@H](CCCNC(=N)N)NC(=O)[C@H](CCC(N)=O)NC(=O)[C@@H]2CSSC[C@H](NC1=O)C(=O)N[C@@H](Cc1ccccc1)C(=O)N1CCC[C@H]1C(=O)N[C@@H](CC(=O)O)C(=O)NCC(=O)N[C@@H](Cc1ccccc1)C(=O)N2 [SFTI-FCQR] (cyclo(GFCQRSIPPICFPD); disulfide 3-11)
KLK14
  inhibition of KLK14 digestion of fibrinogen: no inhibition
Bovine plasminogen
  IC50: did not inhibit
Bovine plasminogen; read-out: IC50
  IC50: > 10 µM
Bovine α-chymotrypsin
  IC50: did not inhibit
Bovine α-chymotrypsin; read-out: IC50
  IC50: > 10 µM
KLK2
  inhibition of KLK2 digestion of fibrinogen: no inhibition
trypsin
  inhibition of tryptic digestion of fibrinogen: no inhibition
Bovine β-trypsin
  IC50: 4.06 ± 1.09 µM
Bovine thrombin
  IC50: did not inhibit
Bovine thrombin; read-out: IC50
  IC50: > 10 µM
KLK5
  inhibition of KLK5 digestion of fibrinogen: no inhibition
iKLK14
  IC50: 1.51 ± 0.0371 µM
KLK4
  concentration giving complete inhibition of fibrinogen proteolysis by KLK4: 250 nM
[1]
  tumour growth rate in comparison to control: arrested tumour growth rate
KLK12
  inhibition of KLK12 digestion of fibrinogen: no inhibition
Bovine β trypsin
  effect on trypsin stimulated calcium release: permissive for calcium release; also recorded: no effect; also recorded: increased intracellular Ca^2+ ion concentration
iKLK4; 1 μM SFTI-FCQR, iKLK4 300 nM
  effect on KLK4 stimulated calcium release: extremely robust blockade of calcium release
iKLK4; at a concentration of 1 mM (as printed in discussion)
  inhibition of KLK4 stimulated calcium flux: complete inhibition
